Columns and labels:
32D-BCR-Abl-T3151 = assay: Cell cycle analysis; assay type: cell-based, murine; details: 24 hours of treatment
Excerpt: (§1) Ba/F3.p210 cells were obtained by transfecting the IL-3-dependent marine hematopoietic Ba/F3 cell line with a pGD vector containing p210BCR-ABL (B2A2) cDNA (Daley and Baltimore, 1988; Sattler et al., 1996; Okuda et al., 1996). Murine hematopoietic 32D cells were transduced with retrovirus to express p210 Bcr-ABL (32D.p210 cells) (Matulonis et al., 1993); the 32D-T315I cell line was transfected by electroporation with the imatinib resistant BCR-ABL construct (pCI-neo Mammalian Expression Vector; Promega (#E1841) harboring the point mutation T315I (Weisberg et al., 2005). Ba/F3 cells were stably transfected by electroporation with imatinib-resistant BCR-ABL constructs (pCI-neo Mammalian Expression Vector; Promega (#E1841) harboring the point mutations T315I, F317L, F486S, and M351T; transfectants were selected for neomycin resistance and IL-3-independent growth (Weisberg et al., 2005). Ba/F3 cells were stably transfected by electroporation with BCR-ABL point mutants identified in a random mutagenesis screen for BCR-ABL point mutants conferring resistance to nilotinib: Q252H, E292K, Y253C, Y253H, E255K, and V289L (Ray et al., 2007). Ba/F3 cells were made to express Tel-PDGFRβ as described by Golub et al., 1994, and Carroll et al., 1996. Constructs of D842V-PDGFRα and V561D-PDGFRα cDNA cloned into pcDNA3.1 were stably transfected into Ba/F3 cells by electroporation, and cells were selected for neomycin resistance and IL3-independent growth as described by Weisberg et al., 2006.
(§2) All cell lines were cultured with 5% CO2 at 37° C. in RPMI (Mediatech, Inc., Herndon, Va.) with 10% fetal calf serum (FCS) and supplemented with 1% L-glutamine. Parental Ba/F3 cells were similarly cultured with 15% WEHI-conditioned medium as a source of IL-3. Transfected cell lines were cultured in media supplemented with 1 mg/ml G418.
(§3) Cell cycle analysis was performed using approximately 500,000 cells, which were centrifuged at 1500 rpm for 5 min, washed in PBS, and the pellet re-suspended in 500 μl of propidium iodide solution (50 μg/ml propidium iodide, 0.1% NP-40, 0.1% sodium citrate). The mixture was stored in the dark at 4° C. for a minimum of 15 min, and then analyzed by flow cytometry. Apoptosis of drug-treated cells was measured using the Annexin-V-Fluos Staining Kit (Boehringer Mannheim, Indianapolis).

32D-BCR-Abl = assay: Cell cycle analysis; assay type: cell-based, murine; details: 24 hours of treatment
Excerpt: as §1, §2, §3

## CCN1CCN(Cc2ccc(NC(=O)c3cccc(-c4ccc5nc(NC(=O)C6CC6)sc5n4)c3)cc2C(F)(F)F)CC1 [Compound 2]
32D-BCR-Abl-T3151; 0.01 μM
  % G0G1: 36.96%
  % G2M: 22.64%
  % S: 40.40%
32D-BCR-Abl-T3151; 0.1 μM
  % G0G1: 46.35%
  % G2M: 10.54%
  % S: 43.11%
32D-BCR-Abl-T3151; 1.0 μM
  % G0G1: 73.13%
  % G2M: 9.29%
  % S: 17.59%
32D-BCR-Abl; 0.01 μM
  % G0G1: 42.62%
  % G2M: 9.56%
  % S: 47.82%
32D-BCR-Abl; 0.1 μM
  % G0G1: 76.52%
  % G2M: 3.78%
  % S: 19.71%
32D-BCR-Abl; 1.0 μM
  % G0G1: 77.44%
  % G2M: 9.07%
  % S: 13.49%

Reference: patent US8765747B2, “Fused 2-aminothiazole compounds” (Dana-Farber Cancer Institute, Inc., priority 2009, dated 2014)
